Results published in paper PMC10447463, “Data-mining unveils structure–property–activity correlation of viral infectivity enhancing self-assembling peptides” (Nature Communications, 2023).
Read-outs that look alike come from different tables or passages of the source.

Assays:
[1] = test system: HIV-1 infection of TZM-bl cells; test: HIV-1 infectivity enhancement assay, β-galactosidase luminescence; assay type: cell-based; settings: for Absolute Infectivity / RLU /s (Feb2021): unrounded values of the 1.3 µM column; for Log10 Inf. rel. to EF-C: log10 of HIV-1 infection of TZM-bl cells relative to EF-C, Fig S15 source data; for Log10 Infection Rel EF-C: HIV-1 infection of TZM-bl cells
[2] = Zeta-potential measurement; assay type: physicochemical; settings: for Zeta-pot. / mV: zeta potential of peptide, Fig S15 source data
How it was run: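 Samples: 1 mg/mL in PBS pH 7.4 (from DMSO), 1 d at RT, then diluted in 1 mM KCl immediately before measurement. Triplicates, two independent runs averaged.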

[3] = Turbidity, derived count rate of scattered light; assay type: physicochemical; settings: for Zeta Count Rate / kcps: mean; for Log Count Rate: log of derived count rate
How it was run: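 One-day room-temperature aggregation at 1 mg/mL in PBS (pH 7.4) preceded measurement; samples then went into 1 mM KCl. Triplicates per sample, two independent experiments averaged.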

[4] = Feb2021, 1.3 µM value relative to virus only (0 µM)
[5] = Feb2021, Log10 of infectivity relative to EF-C
[6] = Feb2021, n-fold enhancement relative to EF-C
[7] = Feb2021, n-fold infectivity relative to EF-C
[8] = Feb2021 run, infectivity n-fold relative to virus alone
[9] = Feb2021 run, log10 of infectivity relative to EF-C
[10] = Feb2021 run, n-fold infectivity relative to EF-C
[11] = infectivity class (low / medium / high) of each library peptide, main list in c1-c6, same classes repeated in sub-lists of sequences containing the hydrophobicity/charge patterns P+,H0,P+,H0,P0,H0,P0, P+,H0,P0,H0,P0,H0,P0, P+,H0,P0,H0
[12] = category 1 or 0 from count rate, key not given
[13] = derived count rate of scattered light, std deviation in next column
[14] = derived count rate of scattered light, std deviation in separate column
[15] = Feb2021, log10 of infectivity relative to EF-C
[16] = infectivity class (low / medium / high) of the peptide in the sequence-pattern analysis, Fig. S22-A4, class limits not given

| Substance | n-fold to virus (Feb2021) [1, 4] | Log10 of Rel to EFC (Feb2021) [1, 5] | Rel-to EFC (Feb-2021) [1, 6] | Rel-to EFC (Feb-2021) [1, 7] | Absolute Infectivity / RLU /s (Feb2021) ([1]; Feb2021) | n-fold to virus (Feb2021) [1, 8] | Log10 of Rel to EFC (Feb2021) [1, 9] | Rel-to EFC (Feb-2021) [1, 10] | infectivity [1, 11] | Log10 Inf. rel. to EF-C ([1]; asymmetric std dev errors) | Zeta category ( +1 = if > 4 mV;-1 = if < -4 mV; 0 = -4mV to 4 mV) [2] | Zeta category ( +1 = if > 4 mV;-1 = if < -4 mV; 0 = -4mV to 4 mV) ([2]; category from zeta potential) | Zeta Pot. / mV ([2]; mean, Std Zeta in next column) | Zeta Pot. / mV ([2]; mean, Std in separate column) | Zeta-pot. / mV [2] | Zeta Count Rate Category ([3]; category 1/0, no key printed) | Zeta Count Rate Category [3, 12] | Zeta Count Rate / kcps [3, 13] | Zeta Count Rate / kcps [3, 14] | Log10 of Rel to EFC (Feb2021) [1, 15] | further results |
| --- | --- | --- | --- | --- | --- | --- | --- | --- | --- | --- | --- | --- | --- | --- | --- | --- | --- | --- | --- | --- | --- |
| KIKIQINM [JGB2] | 15.24 | -0.4404 | 0.3627 | 0.3627 | 2947 RLU /s | 15.24 | -0.4404 | 0.3627 | medium | -0.4404 | 1 (+1 = if > 4 mV) | 1 (+1 = if > 4 mV) | 8.51 mV | 8.51 mV | 8.51 mV | 1 | 1 | 262.1 kcps | 262.1 kcps | – | – |
| CHLHLQL [CN9] | 4.127 | – | – | 0.09822 | 2934 RLU /s | – | – | – | low | -1.008 | -1 (-1 = if < -4 mV) | – | -12.27 mV | – | -12.27 mV | 1 | – | 1155 kcps | – | -1.008 | Rel-to EFC ([1]; Fig S8 panels B, D, infectivity enhancement relative to EF-C): 0.09822; n-fold to virus ([1]; Fig S8 panels B, D, infectivity n-fold relative to virus alone): 4.127; Log Count Rate ([3]; Fig S8 panels A, C, asymmetric log errors): 3.062; Log Count Rate ([3]; Fig S8 panels B, D): 3.062; Count Rate ([3]; Fig S8 panels B, D, turbidity, derived count rate of scattered light): 1154.63 |
| KAKAQA [JJA2 / TM153] | 0.7586 | -1.743 | 0.01805 | 0.01805 | 146.7 RLU /s | 0.7586 | -1.743 | 0.01805 | low | -1.743 | -1 (-1 = if < -4 mV) | -1 (-1 = if < -4 mV) | -14.08 mV | -14.08 mV | -14.08 mV | 0 | 0 | 20.93 kcps | 20.93 kcps | – | – |
| CSISIQINM [TM145] | 8.332 | – | – | 0.1983 | 10943.33333 RLU /s | – | – | – | medium | -0.7027 | -1 (-1 = if < -4 mV) | – | -19.4 mV | – | -19.4 mV | 1 | – | 3291 kcps | – | -0.7027 | – |
| CKIKIQINMW [TM86] | 54.4 | 0.1122 | 1.295 | 1.295 | 7253 RLU /s | 54.4 | 0.1122 | 1.295 | high | 0.1122 | 1 (+1 = if > 4 mV) | 1 (+1 = if > 4 mV) | 18.3 mV | 18.3 mV | 18.3 mV | 1 | 1 | 4915 kcps | 4915 kcps | – | infectivity [1, 16]: high |
| CRFRFQF [CN10] | 14.45 | – | – | 0.3439 | 7508 RLU /s | – | – | – | medium | -0.4635 | 0 (0 = -4mV to 4 mV) | – | -2.097 mV | – | -2.097 mV | 1 | – | 390.5 kcps | – | -0.4635 | – |
| RGDKIKIQI | – | – | – | – | – | – | – | – | – | – | – | – | – | – | – | – | – | – | – | – | Rel-EFC ([1]; 1.3 µM peptide, infection relative to EF-C (QCKIKQIINMWQ = 1)): 0,02; Log10 Infection Rel EFC ([1]; 1.3 µM peptide, log10 of infection relative to EF-C): -1,81; Log Infectivity ([1]; Fig. S7 panel A (plotted against β-sheet content), Log10 infection relative to EF-C, TZM-bl cells, asymmetric std dev errors): -1.805; Log10 Infection Rel EF-C ([1]; Log10 of infection rate relative to EF-C, Figure 3A source data): -1.81; Log10 Infection Rel EF-C ([1]; infection rate relative to EF-C, log10, data of Figure 2D): -1.805; Log10 Infection Rel EF-C ([1]; infection rate relative to EF-C, log10, source data of Figure 2C): -1.805; Zeta-Pot. ([2]; zeta potential of peptide assemblies): -0.899; Zeta-Potential / mV ([2]; zeta-potential of peptide, source data of Figure 2C): 2.829 mV; Zeta-Potential / mV ([2]; zeta-potential of the peptide assemblies, mean, Figure 3A source data): -0.9 mV; Log10 Count Rate ([3]; Log10 of derived count rate of scattered light (turbidity)): 2.474; Count Rate / kcps ([3]; derived count rate of scattered light at 633 nm, 173°, from zeta-potential measurement, 0.1 mg/mL in 1 mM KCl after 1 d at 1 mg/mL in PBS, turbidity / microscopic aggregation, mean of triplicate): 298 kcps; Log10 Count Rate ([3]; log10 of derived count rate of scattered light (turbidity)): 2.474; Log10 Count Rate ([3]; turbidity, Log10 of derived count rate of scattered light, Figure 3A source data): 2.474 |
| QCKIKIQI [CK3] | 4.706 | -0.9508 | 0.112 | 0.112 | 3577 RLU /s | 4.706 | -0.9508 | 0.112 | medium | -0.9508 | 1 (+1 = if > 4 mV) | 1 (+1 = if > 4 mV) | 9.52 mV | 9.52 mV | 9.52 mV | 1 | 1 | 12426.83333 kcps | 12426.83333 kcps | – | – |
| RGDKIKIQIC [MG7/CN1] | – | -0.07993 | 0.8319 | – | – | 34.95 | -0.07993 | 0.8319 | – | -0.07993 | 1 (+1 = if > 4 mV) | 1 (+1 = if > 4 mV) | 16.5 mV | 16.5 mV | 16.5 mV | – | 1 | 7509 kcps | 7509 kcps | – | infectivity [1, 16]: high |
